Patent publication US11780821B2, “Inhibitors of fibroblast activation protein” (Praxis Biotech LLC, priority 2017, dated 2023)
Counter-ions that a name gives are not always drawn. Like-named read-outs stand apart in the source and are kept apart here.

Legend:
Assay type in all cases: biochemical
[1] = biological target: T1, mouse plasma FAPα (Mus musculus, UniProt P97321); assay: FAPα enzymatic activity in mouse plasma; conditions: C57BL/6 mouse plasma; PRXS-AMC substrate; read-out: mouse plasma FAPα (PRXS-AMC) (exo IC50)
T1 construct: from tissue; host or cells: mouse plasma (C57BL/6, EDTA)
T1 sequence (P97321 24-761 limits assumed): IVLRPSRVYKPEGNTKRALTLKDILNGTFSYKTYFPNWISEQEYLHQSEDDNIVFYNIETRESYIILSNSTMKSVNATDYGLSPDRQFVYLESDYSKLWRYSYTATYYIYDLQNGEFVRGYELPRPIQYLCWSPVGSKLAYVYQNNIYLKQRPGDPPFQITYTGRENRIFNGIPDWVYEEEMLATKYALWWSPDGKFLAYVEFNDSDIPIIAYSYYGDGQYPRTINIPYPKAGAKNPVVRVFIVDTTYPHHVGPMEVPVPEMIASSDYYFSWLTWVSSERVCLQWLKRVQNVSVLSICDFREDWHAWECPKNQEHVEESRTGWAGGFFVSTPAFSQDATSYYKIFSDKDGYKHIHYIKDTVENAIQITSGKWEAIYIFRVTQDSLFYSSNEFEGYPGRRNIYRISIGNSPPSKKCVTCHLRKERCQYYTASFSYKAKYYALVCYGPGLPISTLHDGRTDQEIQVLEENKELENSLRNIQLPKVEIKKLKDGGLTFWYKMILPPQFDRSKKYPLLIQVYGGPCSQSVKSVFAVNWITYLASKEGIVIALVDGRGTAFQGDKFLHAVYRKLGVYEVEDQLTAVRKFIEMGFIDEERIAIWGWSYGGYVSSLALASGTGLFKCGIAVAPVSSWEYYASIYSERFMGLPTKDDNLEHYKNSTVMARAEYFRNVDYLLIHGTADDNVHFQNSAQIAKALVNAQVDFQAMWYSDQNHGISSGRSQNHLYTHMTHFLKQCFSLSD
Description: The blood sample was immediately centrifuged at approximately 9000 g at 4° C. for 5 minutes. Plasma was separated and stored at −80° C. in aliquots of 300 μL. […] The assay was performed for 1 hour at 37° C. protected from light. 7-Amino-4-Methylcoumarin (AMC) release was detected measuring fluorescence at an excitation wavelength of 380 nm and an emission wavelength of 460 nm using a Multifunction Microplate Reader (Synergy 4, Biotek). All measurements were carried out at least as a single point.

[2] = biological target: T2, mouse plasma DPPIV (Mus musculus, UniProt P28843); assay: DPPIV enzymatic activity in mouse plasma; conditions: C57BL/6 mouse plasma; H-Gly-Pro-AMC substrate
T2 construct: from tissue; host or cells: mouse plasma (C57BL/6, EDTA)
T2 sequence (P28843 37-760 limits assumed): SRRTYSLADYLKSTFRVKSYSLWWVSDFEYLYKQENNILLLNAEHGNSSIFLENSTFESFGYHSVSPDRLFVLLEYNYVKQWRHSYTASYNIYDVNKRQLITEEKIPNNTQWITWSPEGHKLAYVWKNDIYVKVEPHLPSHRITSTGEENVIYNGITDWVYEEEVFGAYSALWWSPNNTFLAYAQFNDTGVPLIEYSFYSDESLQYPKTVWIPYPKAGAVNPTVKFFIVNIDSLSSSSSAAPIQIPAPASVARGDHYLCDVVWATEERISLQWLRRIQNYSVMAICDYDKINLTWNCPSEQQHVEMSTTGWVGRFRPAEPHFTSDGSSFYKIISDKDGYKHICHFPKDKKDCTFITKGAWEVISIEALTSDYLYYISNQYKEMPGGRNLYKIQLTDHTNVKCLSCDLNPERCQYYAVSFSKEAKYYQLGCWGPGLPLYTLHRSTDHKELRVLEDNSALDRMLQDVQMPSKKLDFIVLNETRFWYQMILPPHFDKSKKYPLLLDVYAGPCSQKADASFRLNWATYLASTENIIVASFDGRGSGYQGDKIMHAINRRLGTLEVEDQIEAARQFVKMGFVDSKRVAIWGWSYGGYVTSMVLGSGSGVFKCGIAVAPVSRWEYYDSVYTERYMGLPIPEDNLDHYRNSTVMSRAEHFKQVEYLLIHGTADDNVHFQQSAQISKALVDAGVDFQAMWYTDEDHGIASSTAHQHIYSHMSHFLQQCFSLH
Description: Approximately 500 μL of whole blood from one C57BL/6 mouse was harvested into BD Microtainer® tubes (K2) EDTA (#365974, Becton Dickinson and Co.) via terminal cardiac puncture. The blood sample was immediately centrifuged at approximately 9000 g at 4° C. for 5 minutes. Plasma was separated and stored at −80° C. in aliquots of 300 μL. To assay baseline DPPIV enzymatic exopeptidase activity, 5 μL of thawed, mouse plasma was diluted (1:5) in buffer (100 mM Tris-HCl, 400 mM NaCl, 50 mM salicylic acid, 1 mM EDTA, pH 7.5) and mixed with 35 µL of the same buffer before being pre-incubated with different concentrations of 10 μL of test compounds or DMSO vehicle for 15 minutes at 37° C. in 96-well black plates (Nunc, #237108). After pre-incubation, 50 μL of 200 μM dipeptide substrate H-Gly-Pro-AMC (Bachem, #L-1225) was added to the mixture. The assay was performed for 1 hour at 37° C. 7-Amino-4-Methylcoumarin (AMC) release was detected measuring fluorescence at an excitation wavelength of 360 nm and an emission wavelength of 460 nm using a Multifunction Microplate Reader (Synergy 4, Biotek). All measurements were carried out at least in duplicate.

[3] = biological target: T3, recombinant human FAPα (rhFAPα) (Homo sapiens, UniProt Q12884); assay: FAPα enzymatic exopeptidase (dipeptidase) activity assay; conditions: for inhibition at 1 µM: 1 μM test compound, Z-Gly-Pro-AMC substrate, read-out: rhFAPα (% exo inh @ 1 μM); for IC50: exopeptidase, read-out: rhFAPα (exo IC50)
T3 construct: purchased R&S system (so in the source)
T3 sequence (Q12884 1-760): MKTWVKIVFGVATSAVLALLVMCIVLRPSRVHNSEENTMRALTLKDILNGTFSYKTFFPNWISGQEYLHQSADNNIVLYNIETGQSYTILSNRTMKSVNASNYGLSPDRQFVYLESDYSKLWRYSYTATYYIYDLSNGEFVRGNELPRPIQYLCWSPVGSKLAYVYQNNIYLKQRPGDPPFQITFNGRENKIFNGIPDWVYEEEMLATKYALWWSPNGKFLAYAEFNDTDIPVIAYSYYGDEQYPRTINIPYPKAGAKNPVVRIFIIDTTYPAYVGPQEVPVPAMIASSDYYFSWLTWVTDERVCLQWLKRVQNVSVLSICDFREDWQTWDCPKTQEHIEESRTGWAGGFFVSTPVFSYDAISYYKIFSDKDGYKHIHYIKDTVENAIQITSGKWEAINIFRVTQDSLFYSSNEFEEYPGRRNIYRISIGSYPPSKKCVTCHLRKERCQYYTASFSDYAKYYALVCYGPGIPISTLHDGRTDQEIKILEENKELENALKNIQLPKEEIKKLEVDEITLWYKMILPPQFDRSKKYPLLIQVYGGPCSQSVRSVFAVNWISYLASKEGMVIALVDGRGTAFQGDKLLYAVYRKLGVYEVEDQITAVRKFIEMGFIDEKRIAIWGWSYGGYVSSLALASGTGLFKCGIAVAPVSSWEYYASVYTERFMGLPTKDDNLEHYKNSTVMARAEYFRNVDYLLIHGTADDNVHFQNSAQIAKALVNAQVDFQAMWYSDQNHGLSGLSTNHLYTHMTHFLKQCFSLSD

[4] = biological target: T4, recombinant human DPP9 (rhDPP9) (Homo sapiens, UniProt Q86TI2); assay: DPP9 enzymatic activity assay; conditions: H-Gly-Pro-AMC substrate
T4 construct: purchased R&S system (so in the source)
T4 sequence (Q86TI2 whole entry): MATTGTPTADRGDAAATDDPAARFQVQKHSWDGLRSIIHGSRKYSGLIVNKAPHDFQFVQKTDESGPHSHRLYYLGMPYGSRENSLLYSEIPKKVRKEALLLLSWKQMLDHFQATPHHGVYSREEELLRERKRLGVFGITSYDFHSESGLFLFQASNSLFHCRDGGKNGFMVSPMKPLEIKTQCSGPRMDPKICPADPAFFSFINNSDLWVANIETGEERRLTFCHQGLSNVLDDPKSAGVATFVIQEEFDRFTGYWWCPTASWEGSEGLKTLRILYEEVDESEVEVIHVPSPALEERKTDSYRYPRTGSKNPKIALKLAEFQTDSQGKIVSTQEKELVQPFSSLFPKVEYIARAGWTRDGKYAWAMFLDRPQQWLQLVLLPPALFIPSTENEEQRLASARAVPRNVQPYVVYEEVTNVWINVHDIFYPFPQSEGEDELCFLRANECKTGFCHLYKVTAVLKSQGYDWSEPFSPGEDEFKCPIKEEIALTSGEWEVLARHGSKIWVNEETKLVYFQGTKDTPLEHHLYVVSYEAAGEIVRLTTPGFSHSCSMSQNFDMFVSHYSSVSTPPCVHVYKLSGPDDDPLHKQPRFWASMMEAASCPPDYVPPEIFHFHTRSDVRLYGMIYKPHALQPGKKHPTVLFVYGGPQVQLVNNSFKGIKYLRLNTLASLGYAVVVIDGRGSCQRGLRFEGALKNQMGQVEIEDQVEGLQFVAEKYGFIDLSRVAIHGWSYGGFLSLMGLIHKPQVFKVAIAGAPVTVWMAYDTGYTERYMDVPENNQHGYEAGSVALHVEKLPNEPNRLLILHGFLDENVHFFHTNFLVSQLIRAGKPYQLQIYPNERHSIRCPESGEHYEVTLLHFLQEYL
Description: (§1) 7-Amino-4-Methylcoumarin (AMC) release was detected by measuring fluorescence at Ex/Em 380/460 nm using a Multifunction Microplate Reader (Synergy 4, Biotek). All measurements were carried out in triplicate.

[5] = biological target: T5, recombinant human DPPIV (rhDPPIV) (Homo sapiens, UniProt P27487); assay: DPPIV enzymatic activity assay; conditions: H-Gly-Pro-pNA substrate
T5 construct: purchased R&S system (so in the source)
T5 sequence (P27487 whole entry): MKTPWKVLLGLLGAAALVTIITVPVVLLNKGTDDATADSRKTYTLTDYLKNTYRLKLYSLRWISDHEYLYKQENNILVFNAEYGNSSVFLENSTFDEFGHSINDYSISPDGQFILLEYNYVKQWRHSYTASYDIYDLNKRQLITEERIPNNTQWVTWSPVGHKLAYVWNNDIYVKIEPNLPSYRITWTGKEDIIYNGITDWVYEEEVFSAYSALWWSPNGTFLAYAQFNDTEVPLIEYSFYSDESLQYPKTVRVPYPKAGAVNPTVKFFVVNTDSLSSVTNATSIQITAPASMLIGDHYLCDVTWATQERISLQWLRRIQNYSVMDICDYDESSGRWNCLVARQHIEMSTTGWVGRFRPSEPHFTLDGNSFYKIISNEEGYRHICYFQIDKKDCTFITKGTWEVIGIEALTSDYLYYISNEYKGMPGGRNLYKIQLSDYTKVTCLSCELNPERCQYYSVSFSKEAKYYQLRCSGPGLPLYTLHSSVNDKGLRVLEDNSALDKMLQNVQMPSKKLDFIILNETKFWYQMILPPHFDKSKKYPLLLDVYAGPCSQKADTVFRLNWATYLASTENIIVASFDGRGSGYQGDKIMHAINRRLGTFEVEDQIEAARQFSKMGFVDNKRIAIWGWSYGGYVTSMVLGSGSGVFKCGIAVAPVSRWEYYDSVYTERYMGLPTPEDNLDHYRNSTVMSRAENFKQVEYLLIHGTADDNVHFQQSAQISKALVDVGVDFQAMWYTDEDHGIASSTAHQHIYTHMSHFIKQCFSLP

[6] = biological target: T6, recombinant human PREP (rhPREP) (Homo sapiens, UniProt P48147); assay: PREP enzymatic activity assay; conditions: Z-Gly-Pro-AMC substrate
T6 sequence (P48147 1-710): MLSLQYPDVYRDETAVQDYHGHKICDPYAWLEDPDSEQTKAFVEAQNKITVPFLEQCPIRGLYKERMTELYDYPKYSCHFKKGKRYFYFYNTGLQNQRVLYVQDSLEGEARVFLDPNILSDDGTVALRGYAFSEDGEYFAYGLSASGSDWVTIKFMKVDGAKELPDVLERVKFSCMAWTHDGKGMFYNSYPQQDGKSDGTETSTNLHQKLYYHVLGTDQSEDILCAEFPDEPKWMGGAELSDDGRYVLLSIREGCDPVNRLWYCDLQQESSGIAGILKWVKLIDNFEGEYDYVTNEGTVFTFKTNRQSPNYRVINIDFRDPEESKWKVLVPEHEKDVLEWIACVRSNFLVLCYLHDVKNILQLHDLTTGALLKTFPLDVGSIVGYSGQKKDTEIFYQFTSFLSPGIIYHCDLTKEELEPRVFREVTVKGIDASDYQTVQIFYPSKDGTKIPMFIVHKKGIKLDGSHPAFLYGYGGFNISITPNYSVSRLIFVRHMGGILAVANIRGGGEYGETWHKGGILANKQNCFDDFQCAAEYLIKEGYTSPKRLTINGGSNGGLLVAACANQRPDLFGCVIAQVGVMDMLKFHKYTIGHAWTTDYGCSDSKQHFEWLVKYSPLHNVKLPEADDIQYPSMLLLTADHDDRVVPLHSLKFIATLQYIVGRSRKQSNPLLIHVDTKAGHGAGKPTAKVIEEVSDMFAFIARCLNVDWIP
Description: as §1

IC50 [1] [nM]	IC50 [2] [µM]	inhibition at 1 µM [3] [%]	IC50 ([3]; Table 2, Z-Gly-Pro-AMC) [nM]	IC50 ([3]; Table 3) [nM]	IC50 [4] [µM]	IC50 [5] [µM]	IC50 [6] [µM]	Compound
< 1000	> 10	> 50	< 1000	< 1000	1 to 10	> 10	1 to 10	N#C[C@@H]1CC(F)(F)CN1C(=O)CNC(=O)c1c[nH]c(=O)cc1Cc1ccccc1 [Compound 121, (S)-4-benzyl-N-(2-(2-cyano-4,4-difluoropyrrolidin-1-yl)-2-oxoethyl)-6-oxo-1,6-dihydropyridine-3-carboxamide]
< 1000	1 to 10	> 50	< 1000	< 1000	> 10	1 to 10	> 10	N#C[C@@H]1CC(F)(F)CN1C(=O)CNC(=O)c1ccncc1-c1ccc(Cl)c(F)c1 [Compound 111, (S)-3-(4-chloro-3-fluorophenyl)-N-(2-(2-cyano-4,4-difluoropyrrolidin-1-yl)-2-oxoethyl)isonicotinamide]
	> 10	> 50	< 1000	< 1000	1 to 10	> 10	1 to 10	CC(c1ccccc1)c1cnccc1C(=O)NCC(=O)N1CC(F)(F)C[C@H]1C#N (stereo partly drawn) [Compound 123, N-(2-((S)-2-cyano-4,4-difluoropyrrolidin-1-yl)-2-oxoethyl)-3-(1-phenylethyl)isonicotinamide]
		> 50	< 1000	< 1000	> 10	> 10	> 10	Cc1noc(C)c1-c1cnccc1C(=O)NCC(=O)N1CC(F)(F)C[C@H]1C#N [Compound 110, (S)—N-(2-(2-cyano-4,4-difluoropyrrolidin-1-yl)-2-oxoethyl)-3-(3,5-dimethylisoxazol-4-yl)isonicotinamide]
		> 50	< 1000	< 1000	> 10	> 10	1 to 10	N#C[C@@H]1CC(F)(F)CN1C(=O)CNC(=O)c1ccncc1Nc1cccnc1 [Compound 117, (S)—N-(2-(2-cyano-4,4-difluoropyrrolidin-1-yl)-2-oxoethyl)-3-(pyridin-3-ylamino)isonicotinamide]
		> 50	< 1000	< 1000	> 10	> 10	1 to 10	N#C[C@@H]1CC(F)(F)CN1C(=O)CNC(=O)c1ccncc1Sc1ccccc1 [Compound 115, (S)—N-(2-(2-cyano-4,4-difluoropyrrolidin-1-yl)-2-oxoethyl)-3-(phenylthio)isonicotinamide]

Continued, molecule first:

Compound	IC50 [1] [nM]	IC50 [2] [µM]	inhibition at 1 µM [3] [%]	IC50 ([3]; Table 2, Z-Gly-Pro-AMC) [nM]	IC50 ([3]; Table 3) [nM]	IC50 [4] [µM]	IC50 [5] [µM]	IC50 [6] [µM]
N#C[C@@H]1CC(F)(F)CN1C(=O)CNC(=O)c1ccncc1-c1ccc(N)nc1 [Compound 107, (S)-6′-amino-N-(2-(2-cyano-4,4-difluoropyrrolidin-1-yl)-2-oxoethyl)-[3,3′-bipyridine]-4-carboxamide formate]			> 50	< 1000	< 1000	1 to 10	1 to 10	> 10
N#C[C@@H]1CC(F)(F)CN1C(=O)CNC(=O)c1ccncc1Nc1ccccc1 [Compound 102]			> 50	< 1000	< 1000	> 10	> 10	> 10
Cc1ccccc1-c1cnccc1C(=O)NCC(=O)N1CC(F)(F)C[C@H]1C#N [Compound 64, (S)—N-(2-(2-cyano-4,4-difluoropyrrolidin-1-yl)-2-oxoethyl)-3-(o-tolyl)isonicotinamide]			> 50	< 1000	< 1000	> 10	> 10	> 10
N#C[C@@H]1CC(F)(F)CN1C(=O)CNC(=O)c1ccncc1N1CCCCC1 [Compound 42]			> 50	< 1000	< 1000	> 10	> 10	> 10
